# Data published in patent US8722849B2, “Polypeptides” (Novo Nordisk A/S, priority 2011, dated 2014).
# Like-named read-outs stand apart in the source and are kept apart here. Starred links: 1 amine or outer side, 2 acyl side, 3 side chain; linkers in the order of their positions; H or OH if unused. Positions of bridges follow the written chain, without caps; N, C: chain ends. Residues, ends and D or L forms follow the SMILES beside them. Groups on a side chain read outwards from the residue. *: point of attachment. C20 diacid = O=C(O)CCCCCCCCCCCCCCCCCCC(=O)*; C18 diacid = O=C(O)CCCCCCCCCCCCCCCCC(=O)*; γGlu = O=C(O)[C@H](CCC(=O)[*:2])N[*:1]; AEEA = NCCOCCOCC(=O)O
# How the values were obtained:
# [1] = Assay (III) ThT fibrillation assay for physical stability; assay type: physicochemical
# Description: ASSAY (III)—ThT Fibrillation Assays for the Assessment of Physical Stability of Protein formulations Low physical stability of a polypeptide may lead to amyloid fibril formation, which is observed as well-ordered, thread-like macromolecular structures in the sample eventually resulting in gel formation. This has traditionally been measured by visual inspection of the sample. However, that kind of measurement is very subjective and depending on the observer. Therefore, the application of a small molecule indicator probe is much more advantageous. Thioflavin T (ThT) is such a probe and has a distinct fluorescence signature when binding to fibrils [Naiki et al. (1989) Anal. Biochem. 177, 244-249; LeVine (1999) Methods. Enzymol. […], 274-284]. The time course for fibril formation can be described by a sigmoidal curve with the following expression [Nielsen et al. (2001) Biochemistry 40, 6036-6046]: [formula] Here, F is the ThT fluorescence at the time t. The constant t0 is the time needed to reach 50% of maximum fluorescence. […] Few of those intermediates nucleate to form a template onto which further intermediates may assembly and the fibrillation proceeds. The lag-time corresponds to the interval in which the critical mass of nucleus is built up and the apparent rate constant is the rate with which the fibril itself is formed. Sample Preparation Samples were prepared freshly before each assay. Each sample composition is described in each example. The pH of the sample was adjusted to the desired value using appropriate amounts of concentrated NaOH and HClO4 or HCl. Thioflavin T was added to the samples from a stock solution in H2O to a final concentration of 1 μM. Sample aliquots of 200 μl were placed in a 96 well microtiter plate (Packard OptiPlate™-96, white polystyrene). Usually, four or eight replica of each sample (corresponding to one test condition) were placed in one column of wells. The plate was sealed with Scotch Pad (Qiagen). Incubation and Fluorescence Measurement Incubation at given temperature, shaking and measurement of the ThT fluorescence emission were done in a Fluoroskan Ascent FL fluorescence platereader or Varioskan platereader (Thermo Labsystems). The temperature was adjusted to 37° C. The orbital shaking was adjusted to 960 rpm with an amplitude of 1 mm in all the presented data. Fluorescence measurement was done using excitation through a 444 nm filter and measurement of emission through a 485 nm filter. Each run was initiated by incubating the plate at the assay temperature for 10 min. The plate was measured every 20 minutes for a desired period of time. Between each measurement, the plate was shaken and heated as described. Data Handling The measurement points were saved in Microsoft Excel format for further processing and curve drawing and fitting was performed using GraphPad Prism. The background emission from ThT in the absence of fibrils was negligible. The data points are typically a mean of four or eight samples and shown with standard deviation error bars. Only data obtained in the same experiment (i.e. samples on the same plate) are presented in the same graph ensuring a relative measure of fibrillation between experiments. The data set may be fitted to Eq. (1). However, since full sigmodial curves in this case are not always achieved during the measurement time, the degree of fibrillation is expressed as ThT fluorescence tabulated as the mean of the samples and shown with the standard deviation at various time points. Measurement of Initial and Final Concentrations The polypeptide concentration in each of the tested formulations were measured both before application in the ThT fibrillation assay (“Initial”) and after completion of the ThT fibrillation (“After ThT assay”). Concentrations were determined by reverse HPLC methods using a pramlintide standard as a reference. Before measurement after completion 150 μl was collected from each of the replica and transferred to an Eppendorf tube. […]
# [2] = Assay (IV) determination of solubility; assay type: physicochemical
# Outline: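 Polypeptide in water (~500 nmol/ml stock) was mixed 1:1 with 100 mM buffers from pH 3.0 to 8.0 (glycylglycine pH 3.0–5.0; bistrispropane pH 6.0–8.0). After 18 hours at room temperature, samples were centrifuged and the polypeptide remaining in solution was quantified by HPLC.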
# [3] = pH 3, pH 3.0, read-out: Solubility pH 3.0
# [4] = pH 4, pH 4.0, 18 hours at room temperature, Table 2, read-out: Solubility pH 4.0
# [5] = pH 4, pH 4.0, read-out: Solubility pH 4.0
# [6] = pH 5, pH 5.0, read-out: Solubility pH 5.0
# [7] = pH 6, pH 6.0, read-out: Solubility pH 6.0
# [8] = pH 6.5, pH 6.5, read-out: Solubility pH 6.5
# [9] = pH 7, pH 7.0, read-out: Solubility pH 7.0
# [10] = pH 7.5, pH 7.5, read-out: Solubility pH 7.5
ThT pH 4.0 lag time (h) ([1]; ThT fibrillation assay),ThT pH 4.0 lag time ([1]; Table 8),ThT pH 4.0 lag time ([1]; Table 9),ThT pH 4.0 lag time ([1]; ThT fibrillation assay),"solubility [2, 3]","solubility [2, 4]","solubility [2, 5]","solubility [2, 6]","solubility [2, 7]","solubility [2, 8]","solubility ([2]; pH 7, pH 7.0, 18 hours at room temperature, Table 3, read-out: Solubility pH 7.0)","solubility [2, 9]","solubility [2, 10]","solubility ([2]; pH 8, pH 8.0, read-out: Solubility pH 8.0)",Compound
14 h,,,,,,,,,,,,,,"CC(C)C[C@H](NC(=O)[C@H](CCCNC(=N)N)NC(=O)[C@H](CCC(N)=O)NC(=O)[C@@H](NC(=O)[C@H](C)NC(=O)[C@@H]1CSSC[C@H](NC(=O)[C@H](Cc2c[nH]cn2)NC(=O)CC[C@H](NC(=O)CCCCCCCCCCCCCCCCCCC(=O)O)C(=O)O)C(=O)N[C@@H](CC(N)=O)C(=O)N[C@@H]([C@@H](C)O)C(=O)N[C@@H](C)C(=O)N[C@@H]([C@@H](C)O)C(=O)N1)[C@@H](C)O)C(=O)N[C@@H](C)C(=O)N[C@@H](CCC(=O)O)C(=O)N[C@@H](Cc1ccccc1)C(=O)N[C@@H](CC(C)C)C(=O)N[C@@H](Cc1c[nH]cn1)C(=O)N[C@@H](CCCNC(=N)N)C(=O)N[C@@H](CO)C(=O)N[C@@H](CO)C(=O)N[C@@H](CC(N)=O)C(=O)N[C@@H](CC(N)=O)C(=O)N[C@@H](Cc1ccccc1)C(=O)NCC(=O)N[C@@H](C)C(=O)N1CCC[C@H]1C(=O)N[C@@H](CC(C)C)C(=O)N[C@@H](CO)C(=O)N[C@@H](CO)C(=O)N[C@H](C(=O)N[C@@H](CC(N)=O)C(=O)N[C@H](C(=O)NCC(=O)N[C@@H](CO)C(=O)N[C@@H](CC(N)=O)C(=O)N[C@H](C(=O)N[C@@H](Cc1ccc(O)cc1)C(N)=O)[C@@H](C)O)C(C)C)[C@@H](C)O [Example 6, N-alpha-[(S)-4-Carboxy-4-(19-carboxynonadecanoylamino)butyryl]-[His1,Glu14,His17,Arg18,Ala25,Pro26,Ser28,Ser29]-pramlintide] ({C20 diacid-γGlu}-HCNTATCATQRLAEFLHRSSNNFGAPLSSTNVGSNTY-NH2; disulfide 2-7 (inferred))"
>45 h,>45 h,>45 h,>45 h,,,,,,,,,,,"CC[C@H](C)[C@H](NC(=O)[C@@H]1CCCN1C(=O)CNC(=O)[C@H](Cc1ccccc1)NC(=O)[C@H](CC(N)=O)NC(=O)[C@H](CCCCNC(=O)COCCOCCNC(=O)COCCOCCNC(=O)CC[C@H](NC(=O)CCCCCCCCCCCCCCCCC(=O)O)C(=O)O)NC(=O)[C@H](CO)NC(=O)[C@H](CO)NC(=O)[C@H](Cc1c[nH]cn1)NC(=O)[C@H](Cc1c[nH]cn1)NC(=O)[C@H](CC(C)C)NC(=O)[C@H](Cc1ccccc1)NC(=O)[C@H](CCC(=O)O)NC(=O)[C@H](C)NC(=O)[C@H](CC(C)C)NC(=O)[C@H](CCCNC(=N)N)NC(=O)[C@H](CCC(N)=O)NC(=O)[C@@H](NC(=O)[C@H](C)NC(=O)[C@@H]1CSSC[C@H](NC(=O)[C@@H](N)CCCCN)C(=O)N[C@@H](CC(N)=O)C(=O)N[C@@H]([C@@H](C)O)C(=O)N[C@@H](C)C(=O)N[C@@H]([C@@H](C)O)C(=O)N1)[C@@H](C)O)C(=O)N[C@@H](CC(C)C)C(=O)N1CCC[C@H]1C(=O)N1CCC[C@H]1C(=O)N[C@H](C(=O)N[C@@H](CC(N)=O)C(=O)N[C@H](C(=O)NCC(=O)N[C@@H](CO)C(=O)N[C@@H](CCC(=O)O)C(=O)N[C@H](C(=O)N[C@@H](Cc1ccc(O)cc1)C(N)=O)[C@@H](C)O)C(C)C)[C@@H](C)O [Example 74, N-epsilon21-[2-(2-{2-[2-(2-{2-[(S)-4-Carboxy-4-(17-carboxyheptadecanoylamino)butyrylamino]ethoxy}ethoxy)acetylamino]ethoxy}ethoxy)acetyl]-[Glu14,His17,Lys21,Glu35]-pramlintide] (H-KCNTATCATQRLAEFLHHSSK([AEEA-AEEA-γGlu-C18 diacid])NFGPILPPTNVGSETY-NH2; disulfide 2-7 (inferred))"
,,,,> 200 µM,> 200 µM,> 200 µM,> 200 µM,> 200 µM,> 200 µM,> 200 µM,> 200 µM,> 200 µM,> 200 µM,"CC[C@H](C)[C@H](NC(=O)[C@@H]1CCCN1C(=O)CNC(=O)[C@H](Cc1ccccc1)NC(=O)[C@H](CC(N)=O)NC(=O)[C@H](CC(N)=O)NC(=O)[C@H](CO)NC(=O)[C@H](CO)NC(=O)[C@H](Cc1c[nH]cn1)NC(=O)[C@H](CCCNC(=N)N)NC(=O)[C@H](CC(C)C)NC(=O)[C@H](Cc1ccccc1)NC(=O)[C@H](CCC(=O)O)NC(=O)[C@H](C)NC(=O)[C@H](CC(C)C)NC(=O)[C@H](CCCNC(=N)N)NC(=O)[C@H](CCC(N)=O)NC(=O)[C@@H](NC(=O)[C@H](C)NC(=O)[C@@H]1CSSC[C@H](NC(=O)[C@@H](N)CCCCNC(=O)CC[C@H](NC(=O)CCCCCCCCCCCCCCCCCCC(=O)O)C(=O)O)C(=O)N[C@@H](CC(N)=O)C(=O)N[C@@H]([C@@H](C)O)C(=O)N[C@@H](C)C(=O)N[C@@H]([C@@H](C)O)C(=O)N1)[C@@H](C)O)C(=O)N[C@@H](CC(C)C)C(=O)N1CCC[C@H]1C(=O)N1CCC[C@H]1C(=O)N[C@H](C(=O)N[C@@H](CC(N)=O)C(=O)N[C@H](C(=O)NCC(=O)N[C@@H](CO)C(=O)N[C@@H](CC(N)=O)C(=O)N[C@H](C(=O)N1CCC[C@H]1C(N)=O)[C@@H](C)O)C(C)C)[C@@H](C)O [Example 177, N-epsilon1-[(S)-4-Carboxy-4-(19-carboxynonadecanoylamino)butyryl]-[Glu14,Arg17,Pro37]-pramlintide]"
,,,,> 200 µM,> 200 µM,> 200 µM,104 µM,2 µM,1 µM,,1 µM,1 µM,,"CC[C@H](C)[C@H](NC(=O)[C@H](CCCCNC(=O)COCCOCCNC(=O)COCCOCCNC(=O)CC[C@H](NC(=O)CCCCCCCCCCCCCCCCCCC(=O)O)C(=O)O)NC(=O)CNC(=O)[C@H](Cc1ccccc1)NC(=O)[C@H](CC(N)=O)NC(=O)[C@H](CC(N)=O)NC(=O)[C@H](CO)NC(=O)[C@H](CO)NC(=O)[C@H](Cc1c[nH]cn1)NC(=O)[C@H](Cc1c[nH]cn1)NC(=O)[C@H](CC(C)C)NC(=O)[C@H](Cc1ccccc1)NC(=O)[C@H](CC(N)=O)NC(=O)[C@H](C)NC(=O)[C@H](CC(C)C)NC(=O)[C@H](CCCNC(=N)N)NC(=O)[C@H](CCC(N)=O)NC(=O)[C@@H](NC(=O)[C@H](C)NC(=O)[C@@H]1CSSC[C@H](NC(=O)[C@@H](N)CCCCN)C(=O)N[C@@H](CC(N)=O)C(=O)N[C@@H]([C@@H](C)O)C(=O)N[C@@H](C)C(=O)N[C@@H]([C@@H](C)O)C(=O)N1)[C@@H](C)O)C(=O)N[C@@H](CC(C)C)C(=O)N[C@@H](CO)C(=O)N[C@@H](CO)C(=O)N[C@H](C(=O)N[C@@H](CC(N)=O)C(=O)N[C@H](C(=O)NCC(=O)N[C@@H](CO)C(=O)N[C@@H](Cc1c[nH]cn1)C(=O)N[C@H](C(=O)N[C@@H](Cc1ccc(O)cc1)C(N)=O)[C@@H](C)O)C(C)C)[C@@H](C)O [Example 140, N-epsilon25-[2-(2-{2-[2-(2-{2-[(S)-4-Carboxy-4-(19-carboxyheptadecanoylamino)butyrylamino]ethoxy}ethoxy)acetylamino]ethoxy}ethoxy)acetyl]-[His17,Lys25,Ser28,Ser29,His35]-pramlintide] (H-KCNTATCATQRLANFLHHSSNNFGK([AEEA-AEEA-γGlu-C20 diacid])ILSSTNVGSHTY-NH2; disulfide 2-7)"
